Results reported in ChEMBL document CHEMBL3580563, “Kaempulchraols A-H, Diterpenoids from the Rhizomes of Kaempferia pulchra Collected in Myanmar” (J Nat Prod, 2015).

Columns and labels:
Format in all cases: functional, cell-based
PSN1 = assay: Antiproliferative activity against human PSN1 cells after 72 hrs by WST8 assay; details: PSN1, 72 h
[1] = Antiproliferative activity against human TIG3 cells after 72 hrs by WST8 assay; details: TIG-3, 72 h
A549 = assay: Antiproliferative activity against human A549 cells after 72 hrs by WST8 assay; details: A549, 72 h
[2] = Antiproliferative activity against human PANC1 cells after 72 hrs by WST8 assay; details: PANC-1, 72 h
MDA-MB-231 = assay: Antiproliferative activity against human MDA-MB-231 cells after 72 hrs by WST8 assay; details: MDA-MB-231, 72 h

| SMILES | IC50 (PSN1) [µM] | IC50 [1] [µM] | IC50 (A549) [µM] | IC50 [2] [µM] | IC50 (MDA-MB-231) [µM] |
| --- | --- | --- | --- | --- | --- |
| C=C[C@]1(C)C=C2CC[C@H]3C(C)(C)[C@H](O)C[C@H](O)[C@]3(C)[C@H]2CC1 | 12.3 |  |  |  |  |
| O=c1[nH]cc(F)c(=O)[nH]1 [FLUOROURACIL] | 4.4 | 8.4 | 2.8 | 3.7 | 5.2 |
